Data as given in US20150258107A1, “METHODS AND COMPOSITIONS FOR TREATING DEPRESSION” (DemeRx, Inc., priority 2014, published 2015).

Assays:
[1] = Pharmacokinetics of noribogaine in healthy male volunteers (plasma and urine, LCMSMS); conditions: for AUC0-216 / AUC0-∞ / Cmax / Tmax / t½: mean (SD)
Sprague-Dawley rats = assay: Fourteen day repeat dose toxicity in rats; assay type: in vivo, rat
Procedure: This study was conducted to evaluate the toxicity profile of noribogaine-HCl following oral (gavage) administration to the rat for 14 days following Table 2 below:
Male and female Sprague-Dawley rats, 10/sex/group, were administered 0, 25, 50 or 100 mg/kg noribogaine HCl daily by single oral gavage for 14 days. An additional 5 rats/sex/group in the 0 (control) and 100 mg/kg groups were retained for a 28 day recovery period during which no drug was administered. Six rats/sex/group (3 rats/sex controls) were similarly dosed and sampled on study days 1 and 14 for analysis of noribogaine-HCl concentrations in the blood.

Sprague-Dawley rat = assay: Single dose toxicity in rats; assay type: in vivo
Procedure: The objective of this study was to determine the toxicity and toxicokinetic profile of noribogaine HCl following a single oral (gavage) administration in the Sprague-Dawley rat. A single dose of 100, 300 and 800 mg/kg (achieved with doses of 400 mg/kg 3 h+/−30 min apart because of the limitations of maximum dose formulation concentration). Five male rats/group were used. […] Hypoactivity, vocalization, chewing movements, changes in respiration/posture, salivation, stimuli sensitivity, tremors, twitches and penile erection occurred prior to death. […] The NOAEL was determined to be 100 mg/kg.

[2] = Human pharmacokinetic study, single oral tablet, fasting healthy volunteers (serum levels); assay type: in vivo; conditions: 3, 10, 30 or 60 mg once orally, healthy volunteers
Procedure: In double blind studies, fasting healthy volunteers (6 per cohort) were treated once orally with a tablet of noribogaine HCl. In escalating cohorts, the volunteers received 3 mg, 10 mg, 30 mg or 60 mg noribogaine.

dogs = assay: Fourteen day repeat dose toxicity in dogs; assay type: in vivo, dog
Procedure: The objective of this study was to determine the toxicity profile of noribogaine HCl given following oral (gavage) administration to dogs for 14 days according to the following Table 3 below:
Noribogaine HCl was administered to groups of 4 male and 4 female dogs by single oral gavage daily for 14 days at doses of 0, 0.5, 1.0 and 5.0 mg/kg/day. An additional group of 4 male and 4 female dogs received either the vehicle control or 5.0 mg/kg/day for 14 days and were held for an additional 28 days after cessation of dosing to assess recovery from any potential drug-induced changes. The study was conducted under GLP guidelines and included comprehensive examinations of clinical signs, body weight, clinical pathology parameters, ophthalmologic examinations, ECG recordings and analyses of plasma for bioanalytical measurement of drug levels at appropriate intervals during the study. At the termination of the dosing phase and at the termination of the recovery phase, all dogs were subjected to a complete post-mortem examination including gross examination of major organs and histologic examination of an extensive list of tissues. Additional sections of brain were obtained from cerebrum, cerebellus, brain stem and spinal cord and examined histologically to evaluate potential effects on brain histopathology. In addition, these sections were examined with immunohistochemical stains for GFAP for evidence of gliosis and Calbindin for a more comprehensive examination of cerebellar Purkinje cells.

[3] = glucuronide in plasma after 30 mg noribogaine (n = 6)
[4] = glucuronide in plasma after 60 mg noribogaine (n = 6)
[5] = plasma, 30 mg and 60 mg dose groups

Q: For CC[C@H]1C[C@@H]2C[C@H]3c4[nH]c5ccc(OC6OC(C(=O)O)C(O)C(O)C6O)cc5c4CCN(C2)[C@@H]13 (stereo partly shown) [Noribogaine glucuronide, noribogaine glucuronide], which “Proportion of Cmax and AUC relative to noribogaine” value ([1]; both dose groups (30 mg, 60 mg)) is on record?
A: 3-4%

Q: And the AUC0-216 [1, 3]?
A: 25.7 (9.1) ng · hr/ml

Q: And the “AUC0-∞” value [1, 3]?
A: 25.8 (9.3) ng · hr/ml

Q: What about the Cmax [1, 3] of the same compound?
A: 1.8 (0.6) ng/ml

Q: What about the Tmax [1, 3] of the same compound?
A: 3.0 (0.6) hr

Q: What about the t½ [1, 3] of the same compound?
A: 20.6 (4.9) hr

Q: What about the AUC0-216 [1, 4] of the same compound?
A: 65.0 (21.5) ng · hr/ml

Q: What about the “AUC0-∞” value [1, 4] of the same compound?
A: 67.1 (21.9) ng · hr/ml

Q: And the Cmax [1, 4]?
A: 4.1 (1.2) ng/ml

Q: What about the Tmax [1, 4] of the same compound?
A: 3.8 (1.2) hr

Q: What about the t½ [1, 4] of the same compound?
A: 23.1 (3.0) hr

Q: What about the Mean half-life [1, 5] of the same compound?
A: 21 to 23 h

Q: And the “Time of peak concentrations after noribogaine dosing” value [1, 5]?
A: 3 to 4 h

Q: And the “Time by which detected in all subjects” value ([1]; plasma, after 30 mg and 60 mg noribogaine)?
A: ≤ 0.75 h

Q: What does the source list for CC[C@@H]1C[C@H]2CC3c4[nH]c5ccc(O)cc5c4CCN(C2)C31.Cl [noribogaine HCl]?
A: Body weight change (Sprague-Dawley rats; 100 mg/kg, females): −2.6%; Body weight change (Sprague-Dawley rats; 100 mg/kg, males): −5.5%; Food consumption change (Sprague-Dawley rats; 100 mg/kg, males and females): −4.7%; Test article-related effects on mortality, clinical signs, ophthalmoscopy, hematology, coagulation, clinical chemistry, urinalysis, gross necropsy, histopathology (Sprague-Dawley rats; 25, 50 or 100 mg/kg daily oral gavage, 14 days): no test article-related effects; Brain sections stained for GFAP or Calbindin (Sprague-Dawley rats; 14 days oral gavage): No treatment-related differences; NOAEL (Sprague-Dawley rats; 14 days oral gavage, highest dose tested): 100 mg/kg; Liver weight (Sprague-Dawley rats; mid- and high dose groups): Minor increases in liver weight; Treatment related signs (Sprague-Dawley rat; 100 mg/kg): did not show any treatment related signs; Rats with clinical signs (hypoactivity, vocalization, salivation, stimuli sensitivity, loss of limb function, lying on cage floor) persisting until Day 2 (Sprague-Dawley rat; 300 mg/kg): 3/5; Mortality (Sprague-Dawley rat; 800 mg/kg (two doses of 400 mg/kg 3 h apart), oral gavage, 5 male rats): Mortality occurred in all male rats; Time of mortality after administration of the second dose (Sprague-Dawley rat; 800 mg/kg group): 2 to 3 h; NOAEL (Sprague-Dawley rat; single oral gavage, male rats): 100 mg/kg; Clinically relevant adverse effects [2]: no clinically relevant adverse effects were observed; Lacrimal gland changes (only target tissue) (dogs; 5 mg/kg/day): slight to moderate atrophy and degeneration of the acinar cells; Lacrimal gland change after 28 days recovery (dogs; 5 mg/kg/day recovery group): clear evidence of regeneration; Adverse effect in clinical observations, body weights, clinical pathology, ophthalmology, ECG, gross lesions (dogs; 0.5, 1.0, 5.0 mg/kg/day oral gavage 14 days, dosing or recovery phase): No evidence of adverse effect; NOAEL (dogs; 14 days oral gavage, based on lacrimal gland changes at 5 mg/kg/day): 1 mg/kg/day
